{"source": "patent US9686985B2", "about": "“Fungicide N-cycloalkyl-N-bicyclicmethylene-carboxamide derivatives” (BAYER INTELLECTUAL PROPERTY GMBH, priority 2012, dated 2017)", "key": {"[1]": {"tested_on": "Sphaerotheca fuliginea", "assay": "Example B: in vivo preventive test on Sphaerotheca fuliginea (powdery mildew on cucurbits)", "conditions": "table B; 500 ppm; gherkin plants; grading 12 days after contamination", "experimental": "Example B: In Vivo Preventive Test on Sphaerotheca fuliginea (Powdery Mildew on Cucurbits) […] Gherkin plants (“Vert petit de Paris” variety), sown in starter cups on a 50/50 peat soil-pozzolana substrate and grown at 24° C., are treated at the Z11 cotyledon stage by spraying with the active ingredient prepared as described above. Plants, used as controls, are treated with the mixture of acetone/tween/DMSO/water not containing the active material. After 24 hours, the plants are contaminated by spraying the cotyledons with an aqueous suspension of Sphaerotheca fuliginea spores (100 000 spores per mL). The spores are collected from infected plants. The contaminated gherkin plants are incubated at about 20° C. and at 70-80% relative humidity. Grading (% of efficacy) is carried out 12 days after the contamination, in comparison with the control plants."}, "[2]": {"tested_on": "Pyricularia oryzae", "assay_type": "in vivo", "conditions": "table Q; 500 ppm; rice plants; grading 6 days after contamination"}, "[3]": {"tested_on": "Uromyces appendiculatus", "assay": "Example G: in vivo preventive test on Uromyces appendiculatus (bean rust)", "conditions": "bean plants", "experimental": "Example G: In Vivo Preventive Test on Uromyces appendiculatus (Bean Rust) […] Bean plants (“Saxa” variety), sown in starter cups on a 50/50 peat soil pozzolana substrate and grown at 24° C., are treated at the 2 leaf stage (9 cm height) by spraying with the active ingredient prepared as described above. Plants, used as controls, are treated with the mixture of acetone/tween/DMSO/water not containing the active material. After 24 hours, the plants are contaminated by spraying the leaves with an aqueous suspension of Uromyces appendiculatus spores (150 000 spores per mL). The spores are collected from infected plants and are suspended in water containing 2.5 mL/L of Tween 80 at 10%. The contaminated bean plants are incubated for 24 hours at 20° C. and at 100% relative humidity, and then for 10 days at 20° C. and at 70-80% relative humidity. Grading (% of efficacy) is carried out 11 days after the contamination, in comparison with the control plants."}, "[4]": {"assay": "log P by HPLC on reversed-phase column (EEC Directive 79/831 Annex V.A8)", "assay_type": "physicochemical", "conditions": "Table 1; HPLC C18, 40° C., 0.1% aqueous formic acid and acetonitrile gradient", "procedure,_shortened": "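Reversed-phase C18 HPLC at 40° C with a linear 10% to 90% acetonitrile gradient against 0.1% aqueous formic acid. Log P is read from retention time by linear interpolation between successive unbranched alkan-2-ones (C3–C16) of known log P. UV spectra from 200 to 400 nm, taken at chromatographic peak maxima, give lambda-max.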"}, "[5]": {"tested_on": "Puccinia recondita", "assay": "Example R: in vivo preventive test on Puccinia recondita (brown rust on wheat)", "conditions": "table R; 500 ppm; wheat plants; grading 12 days after contamination", "experimental": "Example R: In Vivo Preventive Test on Puccinia recondita (Brown Rust on Wheat) […] Wheat plants (“Scipion” variety), sown in starter cups on a 50/50 peat soil pozzolana substrate and grown at 22° C., are treated at the 1 leaf stage (10 cm height) by spraying with the active ingredient prepared as described above. Plants, used as controls, are treated with the mixture of acetone/tween/DMSO/water not containing the active material. After 24 hours, the plants are contaminated by spraying the leaves with an aqueous suspension of Puccinia recondita spores (100 000 spores per mL). The spores are collected from an infected plant and are suspended in water containing 2.5 mL/L of Tween 80 at 10%. The contaminated wheat plants are incubated for 24 hours at 20° C. and at 100% relative humidity, and then for 10 days at 20° C. and at 70-80% relative humidity. Grading (% of efficacy) is carried out 12 days after the contamination, in comparison with the control plants."}, "[6]": {"tested_on": "Pyrenophora teres", "assay": "Example N: in vivo preventive test on Pyrenophora teres (barley)", "conditions": "table N; 500 ppm; barley plants; grading 14 days after contamination", "experimental": "Example N: In Vivo Preventive Test on Pyrenophora teres (Barley) […] Barley plants (“Plaisant” variety), sown in starter cups on a 50/50 peat soil pozzolana substrate and grown at 22° C., are treated at the 1 leaf stage (10 cm height) by spraying with the active ingredient prepared as described above. Plants, used as controls, are treated with the mixture of acetone/tween/DMSO/water not containing the active material. After 24 hours, the plants are contaminated by spraying the leaves with an aqueous suspension of Pyrenophora teres spores (12 000 spores per mL). The spores are collected from a 12-day-old culture. The contaminated barley plants are incubated for 48 hours at 20° C. and at 100% relative humidity, and then for 12 days at 20° C. at 70-80% relative humidity. Grading (% of efficacy) is carried out 14 days after the contamination, in comparison with the control plants."}, "[7]": {"tested_on": "Septoria tritici", "assay": "Example L: in vivo preventive test on Septoria tritici (wheat)", "conditions": "table L; 500 ppm; wheat plants; grading 24 days after contamination", "experimental": "Example L: In Vivo Preventive Test on Septoria tritici (Wheat) […] Wheat plants (“Scipion” variety), sown in starter cups on a 50/50 peat soil pozzolana substrate and grown at 22° C., are treated at the 1 leaf stage (10 cm height) by spraying with the active ingredient prepared as described above. Plants, used as controls, are treated with the mixture of acetone/tween/DMSO/water not containing the active material. After 24 hours, the plants are contaminated by spraying the leaves with an aqueous suspension of cryopreserved Septoria tritici spores (500 000 spores per mL). The contaminated wheat plants are incubated for 72 hours at 18° C. and at 100% relative humidity, and then for 21 days at 90% relative humidity. Grading (% of efficacy) is carried out 24 days after the contamination, in comparison with the control plants."}, "[8]": {"tested_on": "Alternaria brassicae", "assay": "Example D: in vivo preventive test on Alternaria brassicae (leaf spot on radish)", "conditions": "table D; 500 ppm; radish plants; grading 6 days after contamination", "experimental": "Example D: In Vivo Preventive Test on Alternaria brassicae (Leaf Spot on Radish) […] Radish plants (“Pernod Clair” variety), sown in starter cups on a 50/50 peat soil pozzolana substrate and grown at 17° C., are treated at the cotyledon stage by spraying with the active ingredient prepared as described above. Plants, used as controls, are treated with the mixture of acetone/tween/DMSO/water not containing the active material. After 24 hours, the plants are contaminated by spraying the cotyledons with an aqueous suspension of Alternaria brassicae spores (50 000 spores per mL). The spores are collected from a 15-day-old culture. The contaminated radish plants are incubated at 20° C. and at 100% relative humidity. Grading (% of efficacy) is carried out 6 days after the contamination, in comparison with the control plants."}, "[9]": {"tested_on": "Alternaria solani", "assay": "Example C: in vivo preventive test on Alternaria solani (tomato)", "conditions": "table C2, dose 100 ppm, comparison with WO-2010/086311 compound", "experimental": "Example C: In Vivo Preventive Test on Alternaria solani (Tomato) [table] To produce a suitable preparation of active compound, 1 part by weight of active compound is mixed with the stated amounts of solvent and emulsifier, and the concentrate is diluted with water to the desired concentration. To test for preventive activity, young plants are sprayed with the preparation of active compound at the stated rate of application. One day after this treatment, the plants are inoculated with an aqueous spore suspension of Alternaria solani. The plants remain for one day in an incubation cabinet at approximately 22° C. and a relative atmospheric humidity of 100%. Then the plants are placed in an incubation cabinet at approximately 20° C. and a relative atmospheric humidity of 96%."}, "[10]": {"conditions": "table G1, 500 ppm, grading 11 days after contamination"}}}
{"compound": "Cc1cccc2c1CCC2CN(C(=O)c1c(C(F)F)nn(C)c1F)C1CC1", "note": "(stereo not drawn) [I.3]", "values": [{"measurement": "Efficacy", "setting": "[1]", "result": 100, "unit": "%"}, {"measurement": "Efficacy", "setting": "[2]", "result": 97, "unit": "%"}, {"measurement": "Efficacy", "setting": "[3]; [10]", "result": 100, "unit": "%"}, {"measurement": "Efficacy", "setting": "[3]; table G2, dose 100 ppm", "result": 88, "unit": "%"}, {"measurement": "Efficacy", "setting": "[3]; table G2, dose 500 ppm", "result": 100, "unit": "%"}, {"measurement": "logP", "setting": "[4]", "result": 3.71}, {"measurement": "Efficacy", "setting": "[5]", "result": 94, "unit": "%"}, {"measurement": "Efficacy", "setting": "[6]", "result": 100, "unit": "%"}, {"measurement": "Efficacy", "setting": "[7]", "result": 100, "unit": "%"}, {"measurement": "Efficacy", "setting": "[8]", "result": 97, "unit": "%"}]}
{"compound": "Cn1nc(C(F)F)c(C(=O)N(CC2CCc3c(F)cccc32)C2CC2)c1Cl", "note": "(stereo not drawn) [I.8]", "values": [{"measurement": "Efficacy", "setting": "[1]", "result": 100, "unit": "%"}, {"measurement": "Efficacy", "setting": "[2]", "result": 83, "unit": "%"}, {"measurement": "logP", "setting": "[4]", "result": 3.55}, {"measurement": "Efficacy", "setting": "[5]", "result": 75, "unit": "%"}, {"measurement": "Efficacy", "setting": "[6]", "result": 86, "unit": "%"}, {"measurement": "Efficacy", "setting": "[7]", "result": 71, "unit": "%"}]}
{"compound": "Cn1nc(C(F)F)c(C(=O)N(CC2CCc3cccc(Cl)c32)C2CC2)c1F", "note": "(stereo not drawn) [I.14]", "values": [{"measurement": "Efficacy", "setting": "[1]", "result": 100, "unit": "%"}, {"measurement": "Efficacy", "setting": "[2]", "result": 75, "unit": "%"}, {"measurement": "Efficacy", "setting": "[3]; [10]", "result": 100, "unit": "%"}, {"measurement": "Efficacy", "setting": "[3]; table G2, dose 100 ppm", "result": 50, "unit": "%"}, {"measurement": "Efficacy", "setting": "[3]; table G2, dose 500 ppm", "result": 100, "unit": "%"}, {"measurement": "logP", "setting": "[4]", "result": 3.80}, {"measurement": "Efficacy", "setting": "[5]", "result": 81, "unit": "%"}, {"measurement": "Efficacy", "setting": "[6]", "result": 93, "unit": "%"}, {"measurement": "Efficacy", "setting": "[7]", "result": 97, "unit": "%"}, {"measurement": "Efficacy", "setting": "[8]", "result": 100, "unit": "%"}]}
{"compound": "Cn1nc(C(F)F)c(C(=O)N(CC2CCc3cccc(Br)c32)C2CC2)c1F", "note": "(stereo not drawn) [I.21]", "values": [{"measurement": "Efficacy", "setting": "[1]", "result": 100, "unit": "%"}, {"measurement": "Efficacy", "setting": "[2]", "result": 83, "unit": "%"}, {"measurement": "Efficacy", "setting": "[3]; [10]", "result": 98, "unit": "%"}, {"measurement": "logP", "setting": "[4]", "result": 3.92}, {"measurement": "Efficacy", "setting": "[5]", "result": 88, "unit": "%"}, {"measurement": "Efficacy", "setting": "[6]", "result": 79, "unit": "%"}, {"measurement": "Efficacy", "setting": "[7]", "result": 93, "unit": "%"}, {"measurement": "Efficacy", "setting": "[8]", "result": 100, "unit": "%"}]}
{"compound": "Cc1nn(C)c(F)c1C(=O)N(C1CC1)C(C)C1CCCc2ccccc21", "note": "(stereo not drawn) [1.2 from WO-2010/086311, N-cyclopropyl-5-fluoro-1,3-dimethyl-N-[1-(1,2,3,4-tetrahydronaphthalen-1-yl)ethyl]-1H-pyrazole-4-carboxamide, reference compound]", "values": [{"measurement": "Efficacy", "setting": "[9]", "result": "no protection"}, {"measurement": "Efficacy", "setting": "[9]; listed as I.2 from WO-2010/086311", "result": 0, "unit": "%"}]}
